Measurements reported in patent US20230255934A1, “NURR1 RECEPTOR MODULATORS AND USES THEREOF” (The Regents of the University of California, priority 2020, published 2023).

Experiments:
[1] = target: Nurr1 ligand binding domain (LBD) (Homo sapiens, UniProt P43354); settings: non-canonical ligand binding pocket, Cys566; cited from earlier work
th and vmat2 expression = settings: zebrafish; cited from earlier work
[2] = target: T1, full-length Nurr1 (NBRE response element) (Mus musculus, UniProt Q06219); experiment: Full-length Nurr1 NBRE luciferase reporter assay in MN9D cells; type: cell-based; settings: 6 h treatment
T1 construct: a cell line derived from dopaminergic neurons which endogenously expresses full length Nurr1 and its target genes; endogenous in cells; host or cells: MN9D TET-ON cells
Description: Luciferase Reporter Assays. These assays were executed using standard protocols. MN9D TET-ON cells (P5) were grown for 60-72 h (see above) before being seeded at 1-10^5 cell/well in 24-well plate in DMEM/F12+5% TET-ON approved FBS 3 h before transfection. Cells were transfected using Lipofectamine 2000 (Invitrogen) and plasmid DNAs according to manufacturer's instructions. Lipofectamine/DNA complexes were prepared in Opti-Mem medium (Gibco) and incubated with cells overnight. The Nurr1-LBD_Gal4-DBD expressing plasmid was prepared by subcloning the Nurr1 LBD fragment into […] plasmid (Clontech) containing GAL4 DBD. The reporter plasmid pGL4.35 (luc2P/9XGAL4 UAS/Hygro) Vector (Promega) contains nine repeats of GAL4 UAS (Upstream Activator Sequence) and drives transcription of the luciferase reporter gene luc2P in response to binding of Nurr-LBD_Gal4-DBD chimeric protein. The pRL-null (Promega) plasmid expressing renilla luciferase was used as an internal control. […] Alternatively, cells were co-transfected with the reporter plasmid NBREx3-POMC-Luc containing three copies of the NBRE sequence ([NT] ID NO:23)) subcloned into the pXP1-luc plasmid containing the minimal (positions -34 to +63) POMC promoter as described previously^7, and the pRL-null plasmid. […] Transfected cells were treated with increasing concentrations of 5-chloroindole or vehicle only for 6 h, after which time the media was aspirated and luciferase activity was measured. Cells from each well were incubated for 15 min with 220 μL/well of Dual-Glo® Luciferase Reagent (Promega) at room temperature upon rotation on the orbital shaker. […] Resulting solutions were transferred to a white opaque 96-well plate (65 μL/well; 3 wells/sample) and firefly luciferase activity was measured using Veritas Microplate Luminometer (Turner BioSystems, Sunnyvale, Calif.). […] Renilla luciferase activity was measured after 20 min of incubation of the plate inside the luminometer. Experimental values are expressed as the average of firefly/renilla luciferase activity±standard deviation (for three independent biological replicates). […]

T1 sequence (Q06219 whole entry): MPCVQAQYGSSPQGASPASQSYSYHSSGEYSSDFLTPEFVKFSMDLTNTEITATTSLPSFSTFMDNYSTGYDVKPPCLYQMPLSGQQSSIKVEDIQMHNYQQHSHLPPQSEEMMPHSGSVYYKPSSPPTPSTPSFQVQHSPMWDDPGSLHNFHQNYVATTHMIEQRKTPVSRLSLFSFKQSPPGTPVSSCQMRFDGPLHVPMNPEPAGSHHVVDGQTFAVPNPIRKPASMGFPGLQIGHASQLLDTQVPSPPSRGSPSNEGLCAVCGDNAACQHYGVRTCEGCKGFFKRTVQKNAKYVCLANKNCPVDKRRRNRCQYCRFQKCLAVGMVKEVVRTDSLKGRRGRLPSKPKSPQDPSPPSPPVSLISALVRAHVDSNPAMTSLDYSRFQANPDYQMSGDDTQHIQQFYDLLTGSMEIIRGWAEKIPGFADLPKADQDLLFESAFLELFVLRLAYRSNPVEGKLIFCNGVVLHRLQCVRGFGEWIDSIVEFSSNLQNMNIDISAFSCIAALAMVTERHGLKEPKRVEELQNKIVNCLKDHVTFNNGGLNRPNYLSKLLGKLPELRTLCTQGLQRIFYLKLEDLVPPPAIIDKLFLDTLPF
Chain of Nurr1 ligand binding domain (LBD) (P43354 360-595 limits assumed): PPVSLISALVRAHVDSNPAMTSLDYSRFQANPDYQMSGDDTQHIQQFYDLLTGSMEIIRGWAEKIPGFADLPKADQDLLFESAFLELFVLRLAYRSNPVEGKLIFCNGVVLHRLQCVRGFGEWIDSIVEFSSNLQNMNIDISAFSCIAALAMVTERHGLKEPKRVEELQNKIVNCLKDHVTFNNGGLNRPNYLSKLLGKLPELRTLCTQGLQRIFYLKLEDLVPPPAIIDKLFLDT

Luciferase production, full-length Nurr1 NBRE reporter [2]	Compound	Binding to the Nurr1 LBD (in words) [1]	Expression of th and vmat2 (th and vmat2 expression)
	Oc1cc2cc[nH]c2cc1O [DHI, 5,6-dihydroxyindole]	forming a reversible covalent adduct with the side chain of Cys566	stimulates the expression of th and vmat2
perform as expected	CCN(CC)Cc1cc(Nc2ccnc3cc(Cl)ccc23)ccc1O [amodiaquine, reference compound]		
perform as expected	N#Cc1ccc2[nH]ccc2c1 [5-cyanoindole, reference compound]		
